Test results from patent US20250268824A1, “METHODS FOR MAKING REDUCED PARTICLE SIZE COMPOUNDS” (TaP Pharmaceuticals AG, priority 2024, published 2025).

Assay: Miscibility of unprocessed prednisolone acetate with water
Type: physicochemical
Conditions: floats on the surface of water
Protocol: (§1) API Particle size reduction. The API, prednisolone acetate, of the present invention is destined for inclusion in ophthalmic formulation and characterized by a target PSD of: D10≤0.15 μM, D50≤0.75 μM, D90≤2.5 μM. […] Addition of surfactant (e.g. polysorbate) to aqueous solution was required to form slurries of prednisolone acetate suitable for use as vehicles in particle size reduction experiments that employed bead milling and high-pressure homogenization.
as §1, with “and in some embodiments” for “and”, “D10≤1.0” for “D10≤0.15”, “D50≤2.2” for “D50≤0.75”, “D90≤4.5” for “D90≤2.5”, “that” for “that employed bead milling and”

**Q.** With `CC(=O)OCC(=O)[C@@]1(O)CC[C@H]2[C@@H]3CCC4=CC(=O)C=C[C@]4(C)[C@H]3[C@@H](O)C[C@@]21C` [prednisolone acetate] as the compound, how does the miscibility with water read?
**A.** immiscible with water
